Data published in paper PMC5000617, “Antiproliferative and Pro-Apoptotic Effect of Novel Nitro-Substituted Hydroxynaphthanilides on Human Cancer Cell Lines” (International Journal of Molecular Sciences, 2016).

What was measured:
THP-1 cells [1] = assay: Annexin V-FITC/PI apoptosis assay by flow cytometry, THP-1; type: cell-based, human; settings: mean
Method: (§1) Staining of cells by Annexin V-FITC conjugate reflects the externalization of phosphatidylserine on the outer surface of the cell membrane as one of the early indicators of apoptosis.
(§2) Early and late stages of apoptosis were detected using Annexin V-FITC Kit—Apoptosis Detection Kit faccording to the manufacturer´s instructions. […] At each time-point of incubation (12, 18, and 24 h) the cells were washed with ice-cold PBS prior to being resuspended at a concentration of 5 × 10^6 cells/mL in a total volume of 100 μL of 1× binding buffer. Annexin V-FITC solution (final concentration 0.25 μg/mL) and PI (final concentration 12.5 μg/mL) were added to each sample; the cell suspension was kept on ice and incubated for 15 min in the dark. After that, the analysis was carried out by flow cytometry. The data were evaluated using Kaluza Flow Cytometry Analysis 1.2. Per sample, a total number of 2 × 10^4 cells were analysed.

3T3-L1 cells = assay: WST-1 cell proliferation assay, 3T3-L1 non-tumour cells; type: cell-based, mouse; settings: for IC50: Mus musculus, 3T3-L1, WST-1, 24 h, non-tumour cells, mean ± SD; for effect on cell proliferation: 3T3-L1, 24 h
Method: (§3) THP-1 human monocytic leukemia cell line, MCF-7 human breast adenocarcinoma cells and 3T3-L1 mouse embryonic fibroblast were purchased from the European Collection of Cell Cultures (ECACC, Salisbury, UK). Cells were routinely tested for the absence of mycoplasma (Hoechst 33258 staining method). THP-1 cells were maintained in RPMI 1640 culture medium containing 2 mM L-glutamine; MCF-7 and 3T3-L1 cells were cultured in DMEM medium. All of the culture media were supplemented with 10% heat-inactivated FBS and antibiotics (100 U/mL penicillin and 100 μg/mL streptomycin). Cells were maintained at 37 °C in a humidified atmosphere containing 5% CO2.
(§4) Cell proliferation was evaluated using Cell Proliferation Reagent WST-1 (2-(4-iodophenyl)-3-(4-nitrophenyl)-5-(2,4-disulfophenyl)-2H-tetrazolium) (Roche Diagnostics, Mannheim, Germany) according to the manufacturer´s instructions. THP-1 (5 × 10^4 cells/100 μL culture medium per well), MCF-7 cells (1 × 10^4 cells/100 μL per well), and 3T3-L1 (2.5 × 10^3 cells/100 μL per well) were cultured in 96-well plates in triplicate. The measurement was performed using Synergy 2 Multi-Mode Microplate Reader (BioTek, Winooski, VT, USA) after 24 h incubation of cells with tested compounds dissolved in DMSO and subsequently in RPMI 1640 to final concentration ranging 0.5–20 μM in the assays. Cell viability was assessed by dye exclusion test. THP-1 (2 × 10^5 cells/mL per well) and MCF-7 cells (8 × 10^4 cells/mL per well) were incubated in 24-well plates with the indicated concentrations of compounds for 24 h. The number of viable cells was determined using hemocytometer after their staining with a solution of erythrosin B (0.1% erythrosin B (w/v) in PBS). The assays were conducted in triplicate. The IC50 and LC50 values were calculated from fitted concentration-response curves using GraphPad Prism 5.00 software (GraphPad Software, San Diego, CA, USA).

MCF-7 cells [2] = assay: WST-1 cell proliferation assay, MCF-7; type: cell-based, human; settings: for IC50: Homo sapiens, MCF7, WST-1, 24 h, 0.5-20 μM, mean ± SD; for effect on cell proliferation: MCF-7, 0.5-20 μM, 24 h
Method: (§5) Initially, we examined the effect of six nitro-substituted hydroxynaphthanilides on the proliferation of human leukaemia and breast carcinoma cell lines, using Water Soluble Tetrazolium Salts-1 (WST-1) assay. For such analyses, THP-1 and MCF-7 cells were treated with the compounds at concentrations ranging from 0.5 to 20 μM for 24 h. […] The inhibitory effect of 2 and 6 was statistically significant (p < 0.001) starting from the concentration of 2.5 and 5 μM in THP-1 and MCF-7 cells, respectively. From the concentration-response curves, the IC50 values were determined.
as §3, §4

THP-1 cells [3] = assay: WST-1 cell proliferation assay, THP-1; type: cell-based, human; settings: for IC50: Homo sapiens, THP-1, WST-1, 24 h, 0.5-20 μM, mean ± SD; for effect on cell proliferation: THP-1, 0.5-20 μM, 24 h
Method: as §5, §3, §4

[4] = Erythrosin B dye exclusion viability test, MCF-7; type: cell-based; settings: human, MCF-7 cells; erythrosin B exclusion test, 24 h, mean ± SD; read-out: MCF-7 LC50
Method: (§6) Subsequently, for the comparison of the antiproliferative and cytotoxic effects we assessed the cell viability after 24 h treatment with compounds 1–6 in both tumour cell lines using the dye exclusion test.
as §3, §4

[5] = Erythrosin B dye exclusion viability test, THP-1; type: cell-based; settings: human, THP-1 cells; erythrosin B exclusion test, 24 h, mean ± SD; read-out: THP-1 LC50
Method: as §6, §3, §4

cyclin B1 [6] = assay: Western blot of cyclin B1 in MCF-7 cells; type: cell-based, human; settings: MCF-7, 24 h
Method: (§7) Additionally, the cell cycle analysis allows determining the presence of a subdiploid cell population as a characteristic marker of cells with fractional DNA content. A significant increase (p < 0.001) of the sub-G1 peak was found only after the treatment with 5 µM of compound 2 in THP-1 cells, where an approximately eight-fold increase was observed compared to the drug-free control (Figure 4).
(§8) For Western blotting, cells were washed with PBS and lysed in lysis buffer (100 mM Tris-HCl, pH = 6.8; 20% glycerol; 1% SDS) containing protease and phosphatase inhibitor cocktails. Protein concentration was measured using Roti®-Quant universal (Carl Roth, Karsruhe, Germany) according to the manufacturer’s instructions. Cell lysates were supplemented with bromophenol blue (final concentration 0.01% (w/v)) and β-mercaptoethanol (final concentration 1% (v/v)) prior to being heated for 5 min at 95 °C. Equal amounts of protein (10 μg) were loaded into a 12% polyacrylamide gel, separated by SDS-polyacrylamide gel electrophoresis and subsequently electrotransferred onto nitrocellulose membranes. Reversible Ponceau S. staining was performed to assess equal sample loading. […] The intensity of bands was semi-quantitatively analysed using the ImageJ software (National Institute of Mental Health, Bethesda, MD, USA).

MCF-7 cells [7] = assay: Flow cytometric cell cycle analysis (PI), MCF-7; type: cell-based, human; settings: MCF-7, 24 h
Method: (§9) In order to determine at which stage of the cell cycle these compounds induce cell growth inhibition, flow cytometric analyses of cell cycle profiles in THP-1 and MCF-7 cell lines were performed. […] Therefore, THP-1 and MCF-7 cells were treated for 24 h with the compounds at concentrations of 2.5, 5, and 10 μM, respectively. In general, we detected a qualitatively similar effect on the distribution of cells in cell cycle phases following the treatment with compounds 2 and 6 in both leukaemia and breast carcinoma cells. […] This was in concert with a simultaneous decrease in the number of cells observed in the S phase compared to the drug-free control, while the percentage of cells in the G2/M phase remained unchanged.
(§10) THP-1 and sub-confluent MCF-7 cells were treated and subsequently incubated with indicated concentrations of compounds 2 and 6 for 24 h. After the incubation, cells were washed twice in PBS (pH 7.4), fixed in 70% ethanol and stored at −20 °C overnight. Fixed cells were collected by centrifugation, and supernatant was discarded. The cell pellet was washed twice with PBS and incubated with RNaseA (0.02 mg/mL) and 0.05% (v/v) Triton X-100 in PBS for 30 min at 37 °C. After the nuclei staining with propidium iodide (PI) (0.04 mg/mL), the cell cycle distribution was analysed using a flow cytometer Cell Lab Quanta SC (Beckman Coulter, Brea, CA, USA). The quantification of cell cycle distribution was carried out using software MultiCycle AV (Phoenix Flow System, San Diego, CA, USA). A total number of 2 × 10^4 cells was analysed per sample.

cyclin E1 [8] = assay: Western blot of cyclin E1 in THP-1 cells; type: cell-based, human; settings: THP-1, 24 h
Method: as §7
For Western blotting, cells were washed with PBS and lysed in lysis buffer (100 mM Tris-HCl, pH = 6.8; 20% glycerol; 1% SDS) containing protease and phosphatase inhibitor cocktails. Protein concentration was measured using Roti®-Quant universal (Carl Roth, Karsruhe, Germany) according to the manufacturer’s instructions. Cell lysates were supplemented with bromophenol blue (final concentration 0.01% (w/v)) and β-mercaptoethanol (final concentration 1% (v/v)) prior to being heated for 5 min at 95 °C. Equal amounts of protein (10 μg) were loaded into a 12% polyacrylamide gel, separated by SDS-polyacrylamide gel electrophoresis and subsequently electrotransferred onto nitrocellulose membranes. Reversible Ponceau S. staining was performed to assess equal sample loading. Then, the membranes were blocked with 5% non-fat dry milk in TBST (10 mM Tris-HCl pH = 7.5, 150 mM NaCl, 0.1% (v/v) Tween-20) and appropriate primary and secondary antibodies were used for immunodetection. The proteins were visualized by ECL Plus reagent according to the manufacturer’s instructions. The intensity of bands was semi-quantitatively analysed using the ImageJ software (National Institute of Mental Health, Bethesda, MD, USA).

THP-1 cells [9] = assay: Flow cytometric cell cycle analysis (PI), THP-1; type: cell-based, human; settings: THP-1, 24 h
Method: as §9, §10

MCF-7 cells [10] = assay: Erythrosin B dye exclusion viability test, MCF-7; type: cell-based
Method: as §6, §3, §4

cyclin E1 [11] = assay: Western blot of cyclin E1 in MCF-7 cells; type: cell-based, human; settings: MCF-7, 24 h
Method: as §7, §8

cyclin B1 [12] = assay: Western blot of cyclin B1 in THP-1 cells; type: cell-based, human; settings: THP-1, 24 h
Method: as §7, §8

THP-1 cells [13] = assay: Erythrosin B dye exclusion viability test, THP-1; type: cell-based
Method: as §6, §3, §4

[14] = Annexin V-FITC/PI apoptosis assay by flow cytometry, THP-1; type: cell-based, human; settings: human, THP-1 cells, THP-1, 5 μM, representative dot plot, read-out: quadrant I: viable cells
Method: as §1, §2

## N.N.[Cl][Pt][Cl] [cisplatin, reference compound]
THP-1 cells [1]; THP-1, 10 µg/mL, 24 h
  early apoptotic cells: 44.38%

## O=C(Nc1ccccc1[N+](=O)[O-])c1cc2ccccc2cc1O [Compound 1]
3T3-L1 cells
  IC50: > 20 µM
MCF-7 cells [2]
  IC50: > 20 µM
  effect on cell proliferation: neither compound 1 nor 4 (both ortho-substituted derivatives) was able to induce the inhibition of cell growth
THP-1 cells [3]
  IC50: > 20 µM
  effect on cell proliferation: neither compound 1 nor 4 (both ortho-substituted derivatives) was able to induce the inhibition of cell growth
[4]
  CC50 at 24 h: > 20 µM
[5]
  CC50 at 24 h: > 20 µM

## O=C(Nc1cccc([N+](=O)[O-])c1)c1c(O)ccc2ccccc12 [Compound 5]
3T3-L1 cells
  IC50: > 20 µM
MCF-7 cells [2]
  IC50: > 20 µM
  effect on cell proliferation: a 50% reduction in cell growth was not achieved
THP-1 cells [3]
  IC50: > 20 µM
  effect on cell proliferation: proliferation of THP-1 cells was not affected
[4]
  CC50 at 24 h: > 20 µM
[5]
  CC50 at 24 h: > 20 µM

## O=C(Nc1ccccc1[N+](=O)[O-])c1c(O)ccc2ccccc12 [Compound 4]
3T3-L1 cells
  IC50: > 20 µM
MCF-7 cells [2]
  IC50: > 20 µM
  effect on cell proliferation: neither compound 1 nor 4 (both ortho-substituted derivatives) was able to induce the inhibition of cell growth
THP-1 cells [3]
  IC50: > 20 µM
  effect on cell proliferation: neither compound 1 nor 4 (both ortho-substituted derivatives) was able to induce the inhibition of cell growth
[4]
  CC50 at 24 h: > 20 µM
[5]
  CC50 at 24 h: > 20 µM

## O=C(Nc1ccc([N+](=O)[O-])cc1)c1c(O)ccc2ccccc12 [Compound 6, 2-hydroxy-N-(4-nitrophenyl)-naphthalene-1-carboxamide]
Cyclin B1 [6]
  total protein levels of cyclin B1: total protein levels of cyclin B1 were not changed
MCF-7 cells [7]
  distribution of cells in cell cycle phases: induced accumulation of cells in G1 phase
  sub-G1 / sub-diploid population: no significant increase of sub-diploid population
Cyclin E1 [8]
  expression of cyclin E1: dose-dependent decrease in expression of cyclin E1
  levels of cyclin E1 low molecular weight (LMW E1) isoform: more pronounced reduction of LMW E1 isoform levels
3T3-L1 cells
  effect on cell proliferation: did not decrease cell growth at any of concentrations used
  IC50: > 20 µM
MCF-7 cells [2]
  IC50: 5.23 ± 0.802 µM
  effect on cell proliferation: inhibit cell growth in both cell lines in a dose-dependent manner
MCF-7 cells [2]; MCF-7, 24 h
  concentration from which the inhibitory effect on proliferation was statistically significant (p < 0.001): 5 µM
THP-1 cells [9]
  distribution of cells in cell cycle phases: induced accumulation of cells in G1 phase
  sub-G1 / sub-diploid population: no significant increase of sub-diploid population
THP-1 cells [3]
  IC50: 5.8 ± 0.37 µM
  effect on cell proliferation: inhibit cell growth in both cell lines in a dose-dependent manner
THP-1 cells [3]; THP-1, 24 h
  concentration from which the inhibitory effect on proliferation was statistically significant (p < 0.001): 2.5 µM
[4]
  CC50 at 24 h: > 20 µM
MCF-7 cells [10]; MCF-7, 24 h, vs control
  effect on cell viability: Neither compound 2 nor 6 reduced cell viability under 50%
Cyclin E1 [11]
  expression of cyclin E1: dose-dependent decrease in expression of cyclin E1
Cyclin B1 [12]
  total protein levels of cyclin B1: total protein levels of cyclin B1 were not changed
[5]
  CC50 at 24 h: 9.98 ± 0.349 µM
THP-1 cells [13]
  LC50 compared to IC50: 2–3 fold

## O=C(Nc1ccc([N+](=O)[O-])cc1)c1cc2ccccc2cc1O [Compound 3]
3T3-L1 cells
  effect on cell proliferation: affected the proliferation of 3T3-L1 cells in a dose-dependent manner
  IC50: 4.41 ± 0.293 µM
MCF-7 cells [2]
  IC50: 1.65 ± 0.938 µM
  effect on cell proliferation: inhibit cell growth in both cell lines in a dose-dependent manner
THP-1 cells [3]
  IC50: 1.05 ± 0.199 µM
  effect on cell proliferation: inhibit cell growth in both cell lines in a dose-dependent manner
[4]
  CC50 at 24 h: 12.9 ± 1.98 µM
MCF-7 cells [10]; MCF-7 cells
  LC50 in comparison with IC50: approximately seven-fold
[5]
  CC50 at 24 h: 3.44 ± 1.21 µM
THP-1 cells [13]
  LC50 compared to IC50: 2–3 fold

## CC[C@@]1(O)C(=O)OCc2c1cc1n(c2=O)Cc2cc3ccccc3nc2-1 [camptothecin, reference compound]
[14]; 12 h
  viability at 12 h, 5 µM: 55.8%
[14]; 18 h
  viability at 18 h, 5 µM: 53.8%
[14]; 24 h
  viability at 24 h, 5 µM: 50.9%
THP-1 cells [1]; THP-1, 5 µM, 12 h
  early apoptotic cells: 21.28%
  late apoptotic cells: 24.10%
THP-1 cells [1]; THP-1, 5 µM, 24 h
  early apoptotic cells: 9.65%
  late apoptotic cells: 33.08%
